Data set [1] has as its system E. coli S17 strain. The experiment in a line: MIC and MBC determination, broth microdilution method. It counts as cell-based. Particulars: Escherichia coli, S17STRAIN, 24 h, 37 °C, average of 12 replicas. Here is the method: (§1) A Gram-negative model E. coli S17 strain was used, which was kindly donated by Dr. Jose Antonio Ainsa, exerting resistance to streptomycin as it is also widely used for transformation purposes. S. aureus ATCC 25923, well-known as not a resistant strain and used in susceptibility tests, was evaluated as a Gram-positive model. Both strains were initially grown overnight in TSB at 37 °C under shaking (150 rpm) obtaining, in the stationary growth phase, 10^8–10^9 CFU/mL. TSA was used for seeding bacteria in an incubator at 37 °C (Memmert, Schwabach, Germany) in order to calculate the bacteria growth (CFU/mL) after treatment with the EO-contained molecules.
(§2) Inhibitory and bactericidal concentrations of active EO molecules were tested in two bacteria cultures, E. coli and S. aureus, following the broth microdilution method. Liquid growth medium containing an inoculum of 10^5 CFU/mL and serial concentrations of the EO compounds (0.1–4 mg/mL) were used. EO compounds were solubilized in culture medium by adding Tween® 80 (1.5–2% v/v) prior to their serial dilution. Once bacteria suspension was in stationary growth (10^8–10^9 CFU/mL), it was further diluted to ~10^5 CFU/mL and added to different concentrations ([…]) of the antimicrobial agents. Then, samples were incubated for 24 h at 37 °C under shaking (150 rpm). After incubation, bacterial suspensions were diluted in PBS and spot-plated on TSA plates to count colonies after incubation at 37 °C for 24 h. Positive control (untreated bacteria) and negative control (chlorhexidine treated bacteria) samples were also tested.
Background: In broth dilution the organism is exposed to a series of concentrations in liquid medium.

For data set [2], the system named is S. aureus ATCC 25923. The description is as above. It counts as cell-based. Particulars: Staphylococcus aureus. Here is the method: as §1, §2
Data set [3] relates to S. aureus biofilm. The experiment in a line: Biofilm disruption: elimination of preformed biofilm (CFU/mL count). It counts as cell-based, Staphylococcus aureus. Particulars: 0.5 mg/mL, 24 h, vs untreated biofilm. Here is the method: S. aureus was grown overnight in TSB until stationary growth phase was reached. At this point, bacteria were adjusted to 10^7 CFU/mL and added to a MW96 microplate and incubated at 37 °C for 16 h without shaking. After incubation, culture medium was discarded and biofilms were washed twice with PBS. In order to determine biofilm formation, Calcofluor White Stain (50 µL) was added to each well and incubated 1 min in the dark at room temperature. After incubation, the stain was removed and biofilms were washed twice with PBS. Samples were air-dried in the dark to be further visualized in an inverted fluorescence microscope (Olympus IX81). The effects of EO molecules (0.25–1 mg/mL) to prevent the formation of biofilm and to disrupt an already formed S. aureus biofilm were studied. EO compounds were added to preformed biofilms and samples were incubated for 24 h at 37 °C without shaking. After incubation, biofilms were disrupted by sonication (15 min, 200 W; Ultrasons, JP Selecta, Barcelona, Spain). Samples were then diluted and seeded onto agar plates to count the viable colonies grown after 24 h of incubation at 37 °C.

The test system of data set [4] is S. aureus biofilm. The experiment in a line: Inhibition of biofilm formation (CFU/mL count). Particulars: added to bacteria suspension, 16 h; concentration not printed in the sentence (Figure 5B). It counts as cell-based, Staphylococcus aureus. Here is the method: To study the effects of the compounds present in the EOs on biofilm formation, those were added to bacterial suspensions (10^7 CFU/mL) in a MW96 microplate and incubated for 16 h at 37 °C without shaking. After incubation, planktonic cells were removed by washing them twice with PBS. Biofilm samples were then sonicated as described above and serially diluted to be further plated on agar. Viable bacteria (CFU/mL) were counted after 24 h of incubation at 37 °C.

Data set [5] deals with human dermal fibroblasts. The experiment in a line: Cytotoxicity, Blue Cell Viability assay. Particulars: 24 h. As for the experimental part: (§3) Human dermal fibroblasts, human epidermal keratinocytes (HaCaT), and THP1 human monocytes were used to evaluate the cytotoxic effects of EO-based compounds.
(§4) Fibroblasts and HaCaT were routinely grown in high-glucose DMEM supplemented with 10% FBS and antibiotic-antimycotic. Monocytes were cultured in RPMI 1640 supplemented with 10% FBS, 1% HEPES, 1% nonessential amino acids, 0.1% 2-mercaptoethanol 50 mM, 1% sodium pyruvate 100 mM, and antibiotic-antimycotic. Macrophages were obtained by the in vitro differentiation of monocytes by adding 1 µM PMA to the cell culture. All cell types were grown in a humidified atmosphere at 37 °C and 5% CO2.
(§5) The cytotoxicity was determined by measuring cell metabolism through the Blue Cell Viability assay. Cells were seeded on MW96 microplates and incubated with the tested molecules (0.004–0.125 mg/mL) for 24 h. Control samples (not treated and chlorhexidine treated) were also analyzed. Then, the reagent was added (10%) and cells were incubated for 4 h at 37 °C. The reduction of the dye by metabolically active cells was monitored in a microplate reader (Multimode Synergy HT Microplate Reader; Biotek, Winooski, WI, USA) at 535/590 nm ex/em. Cell viability was determined by interpolation of the emission data obtained from the treated samples and the control samples (not treated cells, 100% viability).

Data set [6] relates to human epidermal keratinocytes (HaCaT). The experiment in a line: Cytotoxicity, Blue Cell Viability assay. Particulars: 24 h; for subcytotoxic dose: keratinocytes. Here is the method: as §3, §4, §5
Data set [7] deals with macrophages (THP1 human monocytes differentiated with PMA). The experiment in a line: Cytotoxicity, Blue Cell Viability assay. Particulars: 24 h. Here is the method: as §3, §4, §5
Data set [8] concerns E. coli and S. aureus. The experiment in a line: Bactericidal mechanism by SEM, flow cytometry and confocal microscopy. It counts as cell-based, Escherichia coli, Staphylococcus aureus. Particulars: treated at MIC and MBC for 24 h. Here is the method: Bacteria morphology before and after treatment with EO molecules was analyzed by SEM as we previously reported. Briefly, logarithmic growth phase E. coli and S. aureus bacteria cultures (~10^5 CFU/mL) were treated with the selected EO compounds at MIC and MBC values and incubated overnight at 37 °C. Following incubation, samples were spin-dried at 600 g and washed twice in PBS (0.1 M). Bacteria were fixed in 2.5% glutaraldehyde for 90 min and subsequently filtered and dehydrated in ethanol solutions series (30, 50, 70, 80, 90, and 100%; twice for 15 min). Finally, samples were air-dried at room temperature and covered with Pt. SEM micrographs were acquired in a SEM Inspect F50 equipment (FEI Co., LMA-INA, Zaragoza, Spain).
In order to study the bactericidal mechanism of the different molecules present in EOs, E. coli and S. aureus bacteria samples (10^7 CFU/mL) were centrifuged at 4400× g for 10 min and resuspended in the different compound solutions at MIC and MBC concentrations following the protocols previously described. Control groups (not treated and chlorhexidine treated bacteria) were also analyzed. All samples were incubated overnight at 37 °C. After propidium iodide (25 µg/mL; Sigma-Aldrich, Munich, Germany) addition, samples were analyzed by flow cytometry in Gallios equipment (Beckman Coulter Company, Cell Separation and Cytometry Unit, CIBA, IIS Aragon, Zaragoza, Spain).
The Live/Dead®BacLight™ bacterial viability kit (Molecular Probes, Fisher Scientific, Hampton, USA) was used to detect bacteria membrane damage. The methodology is based on the double-staining by SYTO9 and propidium iodide as indicated by the manufacturer. […] Samples were then mounted on slides and visualized by confocal microscopy (Leica TCS SP2 Laser Scanning Confocal Microscope, Microscopy Unit, CIBA, IIS Aragon, Zaragoza, Spain). Control samples were also tested as described above.
On the technique in general: A flow cytometer gives signals particle by particle.

Data set [9] deals with S. aureus. Particulars: cited from earlier work.
In data set [10] the test system is S. aureus ATCC 43300. Particulars: cited from earlier work.
For data set [11], the system named is S. aureus ATCC 6538. Particulars: cited from earlier work.
The test system of data set [12] is intestinal cells. Particulars: cited from earlier work.
The test system of data set [13] is fibroblasts. Particulars: cited from earlier work.
In data set [14] the test system is tumor cell lines. Particulars: cited from earlier work.
Data set [15] is described as follows: Cytotoxicity, Blue Cell Viability assay. Particulars: human, human dermal fibroblasts. Here is the method:
as §3, §4, §5

Data set [16] concerns human dermal fibroblasts, keratinocytes, and macrophages. Particulars: 24 h. Here is the method:
as §3, §4, §5

The mark [17] stands for this setting: ATCC25923, S. aureus, 24 h, 37 °C, average of 12 replicas, read-out: MBC.
The mark [18] stands for this setting: ATCC25923, S. aureus, 24 h, 37 °C, average of 12 replicas, read-out: MIC.

In brackets after ≈: the same amount, converted by molar mass. Like-named read-outs stand apart in the source and are kept apart here.

What is called MBC is the lowest tested concentration that kills the bacteria rather than only halting them. As to `Cc1ccc(C(C)C)cc1O` [Carvacrol], the MBC in data set [1] turned out to be 400 µg/mL (≈ 2.66 mM); in data set [2] (ATCC25923, 24 h), 300 µg/mL (≈ 2 mM). Also, the MIC in data set [1] is 200 µg/mL (≈ 1.33 mM); in [2] (ATCC25923, 24 h), 200 µg/mL (≈ 1.33 mM); in data set [9] (lower end of literature range) it was “approximately 0.15 mg/mL”; in [9] (upper end of literature range), 15000 µg/mL (≈ 99.9 mM); in [10], 310 µg/mL (≈ 2.06 mM); in data set [11] (converted from 0.015% v/v), “approximately 0.147 mg/mL”. Besides, the MIC result is “approximately 2.45 mg/mL” in data set [11] (converted from 2.5 µL/mL), 0.015 % v/v in data set [11] (ref 18), 2.5 µL/mL in [11] (ref 21) and 0.4 mg/mL (≈ 2.66 mM) in data set [11] (ref 22). Besides, the “reduction in bacteria growth (CFU/mL) of preformed biofilm” value in data set [3] is given as 3 logs. Also, the “decrease in posterior bacterial growth, compound added before biofilm formation” value in data set [4] was around 6 logs. Moreover, the “concentration toxic to fibroblasts (affects viability)” value (from here on “concentration toxic to fibroblasts”) in data set [5] (viability below 70% (ISO 10993-5)) was at least 90 µg/mL. The subcytotoxic dose in data set [6] was found to be 0.030 mg/mL. Also, the subcytotoxic concentration in data set [7] (macrophages) is given as 0.090 mg/mL; in data set [12] (intestinal cells), ~ 500 µM. Further, the bactericidal mechanism result in data set [8] was “membrane disruption”. Further, in data set [13] (fibroblasts), the “concentration giving 50% viability” value was ~ 5 µg/mL.
For the compound `O=C/C=C/c1ccccc1` [Cinnamaldehyde], the MBC worked out at 300 µg/mL (≈ 2.27 mM) in data set [1] and 500 µg/mL (≈ 3.78 mM) in data set [2] (setting [17]). The MIC in data set [1] is 200 µg/mL (≈ 1.51 mM); in [2] (setting [18]), 400 µg/mL (≈ 3.03 mM). Also, the “reduction in bacteria growth (CFU/mL) of preformed biofilm” value in [3] is given as “around 2 logs”. The “decrease in posterior bacterial growth, compound added before biofilm formation” value in data set [4] was determined as 4 logs. Besides, the “concentration toxic to fibroblasts” value in data set [5] (human) was found to be 15 µg/mL. Besides, the “dose that reduces viability below 70%” value in data set [6] (human) and in data set [7] (human) was 0.030 mg/mL in each case. Also, the bactericidal mechanism result in [8] is reported as “membrane disruption”. Further, the subcytotoxic concentration in data set [14] is on record as ~ 10 µg/mL.
Regarding `C=CCc1ccc(O)c(OC)c1` [Eugenol], the MBC in [1] turned out to be 500 µg/mL (≈ 3.04 mM); in [2] (setting [17]), 1500 µg/mL (≈ 9.13 mM). In addition, the values for the MIC in data set [1] and in [2] (setting [18]) were 400 µg/mL (≈ 2.44 mM) and 1300 µg/mL (≈ 7.92 mM), respectively.
On the same counts, the results for `O=C(/C=C/c1ccc(O)c(O)c1)O[C@H](Cc1ccc(O)c(O)c1)C(=O)O` [Rosmarinic acid] are above 4000 µg/mL, 4000 µg/mL (≈ 11.1 mM), above 4000 µg/mL and 2500 µg/mL (≈ 6.94 mM).
With `CC(C)=CCC/C(C)=C/CC/C(C)=C/CC/C=C(\C)CC/C=C(\C)CCC=C(C)C` [Squalene], the MBC in [1] and in data set [2] (setting [17]) was above 4000 µg/mL in each case. The MIC in data set [1] and in [2] (setting [18]) was above 4000 µg/mL each time.
`Cc1ccc(C(C)C)c(O)c1` [Thymol]: the MBC in [1] and in [2] (setting [17]) was 300 µg/mL (≈ 2 mM) in each case. Moreover, the MIC in [1] and in [2] (setting [18]) was 200 µg/mL (≈ 1.33 mM) each time. For the same compound, the “concentration toxic to fibroblasts” value in data set [5] (human) was at least 90 µg/mL. The subcytotoxic dose in data set [6] is on record as 0.060 mg/mL. Also, the subcytotoxic concentration is listed as 0.060 mg/mL in data set [7] (human) and ~ 500 µM in data set [12]. The bactericidal mechanism entry in data set [8] is “membrane disruption”. Further, the “concentration giving 50% viability” value in [13] is reported as ~ 5 µg/mL.
One may read the viability as a per cent measure of how many cells are alive, often set against a control. On to `[H]/N=C(\N/C(=N/[H])NCCCCCCNC(=N)NC(=N)Nc1ccc(Cl)cc1)Nc1ccc(Cl)cc1` [chlorhexidine, reference compound], for which the viability at 24 h, 0.004 mg/mL in data set [15] is above 70%. Moreover, the subcytotoxic dose result in data set [6] is reported as “lower than 0.004 mg/mL”. Also, the results for the subcytotoxic concentration result in data set [7] (human) and in data set [16] were “lower than 0.004 mg/mL” and 0.004 mg/mL, respectively.
With `C=C1CC/C=C(\C)CC[C@@H]2[C@@H]1CC2(C)C` [β-caryophyllene], the MBC in data set [1] and in data set [2] (setting [17]) was above 4000 µg/mL throughout. The MIC in data set [1] and in data set [2] (setting [18]) was above 4000 µg/mL throughout.

The values are drawn from paper PMC6100501, “Evaluation of the Antimicrobial Activity and Cytotoxicity of Different Components of Natural Origin Present in Essential Oils” (Molecules : A Journal of Synthetic Chemistry and Natural …, 2018).
